Source: patent US6143769A, “Phenylacetic acid benzylamides” (Karl Thomae GmbH, priority 1983, dated 2000)

What was measured:
glucose = test: Study 5: plasma glucose after 1 mg AG-EE 388 ZW i.v., oral solution or capsule; assay type: in vivo, human
Excerpt: Blood samples were taken at different times.

[1] = Study 2: plasma concentration, HPLC; assay type: in vivo, human; conditions: for concentration at 0.2 h: 0.20 h; for concentration at 0.5 h: 0.50 h; for concentration at 1.5 h: 1.50 h
Excerpt: Blood samples were taken at various times.

[2] = human, plasma, po, 2 mg, 2 mg capsule
[3] = human, plasma, po, 2 mg, 2 mg tablet

With CCOc1cc(CC(=O)NC(CC(C)C)c2ccccc2N2CCCCC2)ccc1C(=O)O (racemic) [AG-EE 388 ZW, 2-ethoxy-4-[N-[1-(2-piperidino-phenyl)-3-methyl-1-butyl]aminocarbonylmethyl]-benzoic acid] the “Glucose (mean)” value (glucose; 1 mg i.v., 0.00 h) was 6.10 mmol/L, the “Glucose (mean)” value (glucose; 1 mg p.o. capsule, 0.00 h) was 5.32 mmol/L and the “Glucose (mean)” value (glucose; 1 mg p.o. solution, 0.00 h) was 5.85 mmol/L. For the same molecule, the “Glucose (mean)” value (glucose; i.v., 0.08 h) was 6.54 mmol/L, the “Glucose (mean)” value (glucose; i.v., 0.17 h) was 6.46 mmol/L and the “Glucose (mean)” value (glucose; i.v., 0.25 h) was 6.46 mmol/L. The “Glucose (mean)” value (glucose; i.v., 0.28 h) was 6.46 mmol/L, the “Glucose (mean)” value (glucose; i.v., 0.33 h) was 6.40 mmol/L and the “Glucose (mean)” value (glucose; i.v., 0.42 h) was 6.01 mmol/L. For the same molecule, the “Glucose (mean)” value (glucose; i.v., 0.50 h) was 5.86 mmol/L, the “Glucose (mean)” value (glucose; i.v., 0.75 h) was 5.14 mmol/L and the “Glucose (mean)” value (glucose; i.v., 1.00 h) was 4.57 mmol/L. For the same molecule, the “Glucose (mean)” value (glucose; i.v., 1.50 h) was 4.55 mmol/L, the “Glucose (mean)” value (glucose; i.v., 2.00 h (breakfast)) was 5.11 mmol/L and the “Glucose (mean)” value (glucose; i.v., 2.50 h) was 7.14 mmol/L. The “Glucose (mean)” value (glucose; i.v., 3.00 h) was 6.31 mmol/L, the “Glucose (mean)” value (glucose; i.v., 4.00 h) was 5.58 mmol/L and the “Glucose (mean)” value (glucose; i.v., 5.00 h (lunch)) was 5.48 mmol/L. For the same molecule, the “Glucose (mean)” value (glucose; i.v., 6.00 h) was 6.53 mmol/L, the “Glucose (mean)” value (glucose; i.v., 9.00 h) was 6.49 mmol/L and the “Glucose (mean)” value (glucose; i.v., 24.00 h) was 6.24 mmol/L. For the same molecule, the “Glucose (mean)” value (glucose; p.o. capsule, 0.25 h) was 6.08 mmol/L, the “Glucose (mean)” value (glucose; p.o. capsule, 0.50 h) was 5.87 mmol/L and the “Glucose (mean)” value (glucose; p.o. capsule, 0.75 h) was 5.85 mmol/L. The “Glucose (mean)” value (glucose; p.o. capsule, 1.00 h) was 5.57 mmol/L, the “Glucose (mean)” value (glucose; p.o. capsule, 1.50 h) was 5.24 mmol/L and the “Glucose (mean)” value (glucose; p.o. capsule, 2.00 h (breakfast)) was 5.04 mmol/L. For the same molecule, the “Glucose (mean)” value (glucose; p.o. capsule, 3.00 h) was 5.04 mmol/L, the “Glucose (mean)” value (glucose; p.o. capsule, 4.00 h) was 4.43 mmol/L and the “Glucose (mean)” value (glucose; p.o. capsule, 5.00 h (lunch)) was 4.71 mmol/L. The “Glucose (mean)” value (glucose; p.o. capsule, 6.00 h) was 5.41 mmol/L, the “Glucose (mean)” value (glucose; p.o. capsule, 9.00 h) was 5.42 mmol/L and the “Glucose (mean)” value (glucose; p.o. capsule, 24.00 h) was 5.44 mmol/L. The “Glucose (mean)” value (glucose; p.o. solution, 0.25 h) was 6.13 mmol/L, the “Glucose (mean)” value (glucose; p.o. solution, 0.50 h) was 5.99 mmol/L and the “Glucose (mean)” value (glucose; p.o. solution, 0.75 h) was 5.83 mmol/L. The “Glucose (mean)” value (glucose; p.o. solution, 1.00 h) was 5.77 mmol/L, the “Glucose (mean)” value (glucose; p.o. solution, 1.50 h) was 5.40 mmol/L and the “Glucose (mean)” value (glucose; p.o. solution, 2.00 h (breakfast)) was 5.11 mmol/L. For the same molecule, the “Glucose (mean)” value (glucose; p.o. solution, 3.00 h) was 5.40 mmol/L, the “Glucose (mean)” value (glucose; p.o. solution, 4.00 h) was 4.86 mmol/L and the “Glucose (mean)” value (glucose; p.o. solution, 5.00 h (lunch)) was 5.12 mmol/L. For the same molecule, the “Glucose (mean)” value (glucose; p.o. solution, 6.00 h) was 5.60 mmol/L, the “Glucose (mean)” value (glucose; p.o. solution, 9.00 h) was 5.68 mmol/L and the “Glucose (mean)” value (glucose; p.o. solution, 24.00 h) was 5.60 mmol/L. For the same molecule, the “Concentration (mean)” value ([1]; 2 mg capsule, 0 h) was 0.0 ng/mL, the “Concentration (mean)” value ([1]; 2 mg capsule, 4.00 h, listed as 388, 240 min) was 17 ± 5 ng/mL and the “Concentration (mean)” value ([1]; 2 mg capsule, 5.00 h, listed as 388, 300 min) was 12 ± 3 ng/mL. The “Concentration (mean)” value ([1]; 2 mg capsule, 6.00 h, listed as 388, 360 min) was 8 ± 4 ng/mL, the “Concentration (mean)” value ([1]; 2 mg capsule, 24.00 h) was 0.0 ng/mL and the “Rise and peak of plasma level, tablet versus capsule” value ([1]; 2 mg p.o.) was “rises rather more rapidly after administration of the tablet and reaches its peak somewhat earlier”. For the same molecule, the “Time at which level reaches / falls below the detection limit” value ([1]; 2 mg p.o.) was ≥ 6 h, the “Time at which level reaches / falls below the detection limit” value ([1]; 2 mg p.o., listed as AG-EE 398 ZW) was “about 6 hours” and the Maximum concentration ([1]; 2 mg tablet p.o.) was 83.5 ± 25.5 ng/mL. For the same molecule, the “Concentration (mean)” value ([1]; 2 mg tablet, 0 h) was 0.0 ng/mL, the “Concentration (mean)” value ([1]; 2 mg tablet, 4.00 h, 240 min) was 19.1 ng/mL and the “Concentration (mean)” value ([1]; 2 mg tablet, 24.00 h) was 0.0 ng/mL. For the same molecule, the concentration at 0.2 h [1, 2] was 0.9 ng/mL, the concentration at 0.33 h [1, 2] was 17.5 ng/mL and the concentration at 0.5 h [1, 2] was 44.9 ng/mL. It also gave a concentration at 0.75 h [1, 2] of 66.4 ng/mL, a concentration at 1 h [1, 2] of 73.7 ng/mL and a concentration at 1.5 h [1, 2] of 65.1 ng/mL. For the same molecule, the concentration at 2 h [1, 2] was 50.8 ng/mL, the concentration at 3 h [1, 2] was 27.9 ng/mL and the concentration at 4 h ([1]; human, plasma, po, 2 mg, 2 mg capsule, 4.00 h) was 16.8 ng/mL. It also gave a concentration at 5 h ([1]; human, plasma, po, 2 mg, 2 mg capsule, 5.00 h) of 12.2 ng/mL, a concentration at 6 h ([1]; human, plasma, po, 2 mg, 2 mg capsule, 6.00 h) of 7.8 ng/mL and a concentration at 9 h [1, 2] of 3.3 ng/mL. For the same molecule, the concentration at 0.2 h [1, 3] was 15 ng/mL, the concentration at 0.33 h [1, 3] was 55.6 ng/mL and the concentration at 0.5 h [1, 3] was 75.6 ng/mL. It also gave a concentration at 0.75 h [1, 3] of 83.5 ng/mL, a concentration at 1 h [1, 3] of 81.3 ng/mL and a concentration at 1.5 h [1, 3] of 65.9 ng/mL. The concentration at 2 h [1, 3] was 51.3 ng/mL, the concentration at 3 h [1, 3] was 32.4 ng/mL and the concentration at 5 h ([1]; human, plasma, po, 2 mg, 2 mg tablet, 5.00 h) was 13.2 ng/mL. For the same molecule, the concentration at 6 h ([1]; human, plasma, po, 2 mg, 2 mg tablet, 6.00 h) was 9.5 ng/mL, the concentration at 9 h [1, 3] was 5.2 ng/mL and the Cmax ([1]; human, plasma, po, 2 mg capsule p.o., read-out: Maximum concentration) was 74 ± 15 ng/mL.
